Source: PMC10507807, “De novo design of a stapled peptide targeting SARS-CoV-2 spike protein receptor-binding domain” (RSC Medicinal Chemistry, 2023)
Entries after “also recorded” stand apart in the source; their conditions may differ. Starred links: 1 amine or outer side, 2 acyl side, 3 side chain; linkers in the order of their positions; H or OH if unused. Positions of bridges follow the written chain, without caps; N, C: chain ends. Non-standard residues stand in square brackets, D forms with d. Residues, ends and D or L forms follow the SMILES beside them. X1 = C[C@@](CC=[*:3])(N[*:1])C(=O)[*:2]

How the values were obtained:
[1] = biological target: recombinant SARS-CoV-2 spike B.1.617.2 (delta variant); type: binding
[2] = system: omicron (B.1.1.529) variant; type: binding, SARS-CoV-2
[3] = system: SARS-CoV-2 alpha variant (B.1.1.7); type: cell-based

Question: With `CSCC[C@@H]1NC(=O)[C@H](CC(N)=O)NC(=O)[C@@H]2CC(=O)NCCCC[C@H](NC(=O)[C@H](Cc3c[nH]c4ccccc34)NC(=O)[C@@H](NC(=O)[C@H](CCCCN)NC(=O)[C@H](Cc3ccc(O)cc3)NC(=O)[C@H](CC(C)C)NC(=O)[C@H](Cc3c[nH]c4ccccc34)NC(=O)[C@H](CCC(=O)O)NC(=O)[C@@H](NC(=O)CNC(C)=O)[C@@H](C)O)C(C)C)C(=O)N[C@@H](C)C(=O)N[C@@H](Cc3ccccc3)C(=O)N[C@@](C)(C/C=C/C[C@@](C)(C(=O)O)NC1=O)C(=O)N2` [pep39] (Ac-GTEWLYKVWKAF[X1]DNM[X1]-OH; lactam 10-14; staple (E) 13-17) as the molecule, how does the Kd ([1]; read-out: KD (dissociation constant)) read?
Answer: Its Kd is 4.1 ± 1.4 µM.

Question: And the “binding to omicron variant” value [2]?
Answer: Its value is “not as promising as those observed with the original spike protein and the delta variant”.

Question: And the “inhibition of SARS-CoV-2 virus replication” value [3]?
Answer: Its value is “strongly inhibits SARS-CoV-2 virus replication in Vero E6 cells; also recorded: SARS-CoV-2 viral replication was significantly inhibited”.

Question: What about the “decrease of viral replication compared to PBS control” value ([3]; 48 h) of the same molecule?
Answer: The value was 82.3%.

Question: ACE2 was tested. Which “dissociation constant of ACE2 with delta variant compared with wild-type spike” value [1] did it give?
Answer: Its value is “more favorable for binding than the wild-type spike protein”.
